Laboratory results taken from article PMC11864979, “First-in-class ultralong-target-residence-time p38α inhibitors as a mitosis-targeted therapy for colorectal cancer” (Nature Cancer, 2025).
Where two headings read alike, the source gives them in different places.

Key:
Test in all cases: selectivity profiling in a panel of 340 wild-type kinases (Reaction Biology Europe)
Type in all cases: binding
340 wild-type kinases [1] = molecular target: T1, 340 wild-type kinases (Homo sapiens, UniProt P04629)
T1 construct: purchased Reaction Biology Europe

340 wild-type kinases [2] = molecular target: T2, 340 wild-type kinases (Homo sapiens, UniProt P36507)
T2 construct: purchased Reaction Biology Europe

340 wild-type kinases [3] = molecular target: T3, 340 wild-type kinases (Homo sapiens, UniProt P41743)
T3 construct: purchased Reaction Biology Europe
T3 sequence (P41743 1-596): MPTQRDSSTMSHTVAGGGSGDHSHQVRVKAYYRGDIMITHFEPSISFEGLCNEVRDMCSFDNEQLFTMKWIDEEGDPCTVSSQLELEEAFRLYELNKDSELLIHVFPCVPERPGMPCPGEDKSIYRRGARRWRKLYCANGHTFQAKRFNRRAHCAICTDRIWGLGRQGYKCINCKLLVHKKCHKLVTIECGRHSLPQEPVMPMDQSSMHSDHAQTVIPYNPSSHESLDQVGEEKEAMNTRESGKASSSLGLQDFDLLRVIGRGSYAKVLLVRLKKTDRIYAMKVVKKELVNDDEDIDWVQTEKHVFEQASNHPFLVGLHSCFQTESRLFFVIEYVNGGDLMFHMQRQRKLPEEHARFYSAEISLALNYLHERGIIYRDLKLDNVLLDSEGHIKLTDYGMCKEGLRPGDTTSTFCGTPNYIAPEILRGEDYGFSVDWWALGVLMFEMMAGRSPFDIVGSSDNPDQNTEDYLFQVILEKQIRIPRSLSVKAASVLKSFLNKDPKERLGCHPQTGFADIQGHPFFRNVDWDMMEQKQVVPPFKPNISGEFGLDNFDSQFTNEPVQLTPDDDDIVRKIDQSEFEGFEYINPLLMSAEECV

340 wild-type kinases [4] = molecular target: T4, 340 wild-type kinases (Homo sapiens, UniProt P42680)
T4 construct: purchased Reaction Biology Europe
T4 sequence (P42680 1-631): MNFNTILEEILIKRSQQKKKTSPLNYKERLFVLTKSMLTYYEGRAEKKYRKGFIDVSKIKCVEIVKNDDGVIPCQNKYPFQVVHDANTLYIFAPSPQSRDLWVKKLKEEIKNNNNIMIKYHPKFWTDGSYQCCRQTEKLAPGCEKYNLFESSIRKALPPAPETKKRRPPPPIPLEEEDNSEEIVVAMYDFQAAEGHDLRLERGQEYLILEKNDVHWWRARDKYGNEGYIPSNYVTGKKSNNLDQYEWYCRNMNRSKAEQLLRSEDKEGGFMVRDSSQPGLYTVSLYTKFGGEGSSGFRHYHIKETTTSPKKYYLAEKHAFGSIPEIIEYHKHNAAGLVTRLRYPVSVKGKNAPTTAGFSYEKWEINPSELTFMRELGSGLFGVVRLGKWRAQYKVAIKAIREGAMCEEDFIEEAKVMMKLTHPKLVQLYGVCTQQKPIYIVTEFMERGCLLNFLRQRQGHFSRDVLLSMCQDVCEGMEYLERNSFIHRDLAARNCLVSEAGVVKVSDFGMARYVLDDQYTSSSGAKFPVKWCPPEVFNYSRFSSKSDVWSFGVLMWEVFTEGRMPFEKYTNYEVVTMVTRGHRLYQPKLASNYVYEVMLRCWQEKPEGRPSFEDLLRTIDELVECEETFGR

340 wild-type kinases [5] = molecular target: T5, 340 wild-type kinases (Homo sapiens, UniProt Q16832)
T5 construct: purchased Reaction Biology Europe
T5 sequence (Q16832 22-855): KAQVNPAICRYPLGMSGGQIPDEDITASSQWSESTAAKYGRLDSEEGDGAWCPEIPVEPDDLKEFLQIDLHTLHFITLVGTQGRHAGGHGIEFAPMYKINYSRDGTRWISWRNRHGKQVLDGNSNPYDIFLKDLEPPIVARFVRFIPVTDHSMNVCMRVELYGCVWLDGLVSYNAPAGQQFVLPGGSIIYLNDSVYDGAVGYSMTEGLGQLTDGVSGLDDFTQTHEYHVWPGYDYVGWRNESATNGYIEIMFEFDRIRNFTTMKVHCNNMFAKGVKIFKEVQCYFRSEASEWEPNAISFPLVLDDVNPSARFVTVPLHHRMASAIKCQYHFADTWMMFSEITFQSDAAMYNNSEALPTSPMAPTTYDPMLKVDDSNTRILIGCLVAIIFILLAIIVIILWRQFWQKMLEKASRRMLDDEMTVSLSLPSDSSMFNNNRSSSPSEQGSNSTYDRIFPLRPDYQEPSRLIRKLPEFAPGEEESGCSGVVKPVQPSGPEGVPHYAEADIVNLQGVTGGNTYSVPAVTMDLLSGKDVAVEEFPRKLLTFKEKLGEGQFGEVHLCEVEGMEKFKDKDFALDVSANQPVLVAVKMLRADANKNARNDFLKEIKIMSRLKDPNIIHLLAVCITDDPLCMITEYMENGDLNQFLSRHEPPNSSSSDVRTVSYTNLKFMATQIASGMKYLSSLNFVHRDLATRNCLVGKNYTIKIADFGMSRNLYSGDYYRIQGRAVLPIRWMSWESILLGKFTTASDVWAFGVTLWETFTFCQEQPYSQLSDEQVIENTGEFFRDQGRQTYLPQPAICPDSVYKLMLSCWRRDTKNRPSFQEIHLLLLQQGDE

340 wild-type kinases [6] = molecular target: T6, 340 wild-type kinases (Homo sapiens, UniProt Q6P5Z2)
T6 construct: purchased Reaction Biology Europe

340 wild-type kinases [7] = molecular target: T7, 340 wild-type kinases (Homo sapiens, UniProt Q86V86)
T7 construct: purchased Reaction Biology Europe

340 wild-type kinases [8] = molecular target: T8, 340 wild-type kinases (Homo sapiens, UniProt Q8N5S9)
T8 construct: purchased Reaction Biology Europe
T8 sequence (Q8N5S9 whole entry): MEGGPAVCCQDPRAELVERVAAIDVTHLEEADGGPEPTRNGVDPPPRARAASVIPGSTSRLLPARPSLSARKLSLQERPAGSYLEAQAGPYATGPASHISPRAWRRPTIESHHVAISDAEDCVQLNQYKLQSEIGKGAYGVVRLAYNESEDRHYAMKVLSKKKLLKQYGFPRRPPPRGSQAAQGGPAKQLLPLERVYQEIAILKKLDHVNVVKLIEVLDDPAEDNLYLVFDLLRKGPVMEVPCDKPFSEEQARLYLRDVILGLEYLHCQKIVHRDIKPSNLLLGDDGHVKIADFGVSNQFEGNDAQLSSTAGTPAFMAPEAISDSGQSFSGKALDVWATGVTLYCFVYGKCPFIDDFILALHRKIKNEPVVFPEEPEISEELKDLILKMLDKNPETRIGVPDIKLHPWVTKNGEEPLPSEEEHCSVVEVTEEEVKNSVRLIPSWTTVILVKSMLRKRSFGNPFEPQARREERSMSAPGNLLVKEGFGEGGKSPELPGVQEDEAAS

T2 sequence (P36507 whole entry): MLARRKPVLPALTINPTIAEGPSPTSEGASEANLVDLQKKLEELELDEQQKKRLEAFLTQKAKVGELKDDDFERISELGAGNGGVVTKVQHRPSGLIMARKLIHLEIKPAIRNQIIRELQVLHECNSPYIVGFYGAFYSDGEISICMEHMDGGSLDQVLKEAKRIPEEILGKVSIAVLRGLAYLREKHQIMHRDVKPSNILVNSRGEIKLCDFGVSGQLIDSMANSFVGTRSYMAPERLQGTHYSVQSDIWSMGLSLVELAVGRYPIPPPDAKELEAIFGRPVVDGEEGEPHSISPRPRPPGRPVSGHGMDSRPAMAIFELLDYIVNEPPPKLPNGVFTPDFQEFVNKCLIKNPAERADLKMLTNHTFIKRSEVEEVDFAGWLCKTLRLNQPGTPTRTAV
T1 sequence (P04629 33-796): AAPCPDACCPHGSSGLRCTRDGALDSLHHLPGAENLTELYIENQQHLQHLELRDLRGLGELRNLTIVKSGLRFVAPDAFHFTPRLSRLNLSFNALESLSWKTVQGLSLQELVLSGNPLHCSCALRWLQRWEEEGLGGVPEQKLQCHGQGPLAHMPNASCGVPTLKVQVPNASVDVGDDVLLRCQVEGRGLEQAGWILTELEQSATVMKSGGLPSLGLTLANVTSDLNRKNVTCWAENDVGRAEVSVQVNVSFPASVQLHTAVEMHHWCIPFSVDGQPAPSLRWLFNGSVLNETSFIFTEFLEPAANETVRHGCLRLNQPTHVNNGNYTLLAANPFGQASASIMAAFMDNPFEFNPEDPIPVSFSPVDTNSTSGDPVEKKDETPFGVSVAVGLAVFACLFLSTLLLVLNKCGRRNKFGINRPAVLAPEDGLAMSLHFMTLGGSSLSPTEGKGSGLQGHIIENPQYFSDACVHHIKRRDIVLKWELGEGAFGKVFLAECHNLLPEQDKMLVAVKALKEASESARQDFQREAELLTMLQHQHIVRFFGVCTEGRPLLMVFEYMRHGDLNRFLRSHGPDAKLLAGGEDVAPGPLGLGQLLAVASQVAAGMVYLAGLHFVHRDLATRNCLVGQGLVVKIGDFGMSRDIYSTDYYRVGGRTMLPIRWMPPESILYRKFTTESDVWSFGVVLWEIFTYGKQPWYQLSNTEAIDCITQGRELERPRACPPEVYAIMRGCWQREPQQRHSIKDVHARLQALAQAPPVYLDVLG
T6 sequence (Q6P5Z2 whole entry): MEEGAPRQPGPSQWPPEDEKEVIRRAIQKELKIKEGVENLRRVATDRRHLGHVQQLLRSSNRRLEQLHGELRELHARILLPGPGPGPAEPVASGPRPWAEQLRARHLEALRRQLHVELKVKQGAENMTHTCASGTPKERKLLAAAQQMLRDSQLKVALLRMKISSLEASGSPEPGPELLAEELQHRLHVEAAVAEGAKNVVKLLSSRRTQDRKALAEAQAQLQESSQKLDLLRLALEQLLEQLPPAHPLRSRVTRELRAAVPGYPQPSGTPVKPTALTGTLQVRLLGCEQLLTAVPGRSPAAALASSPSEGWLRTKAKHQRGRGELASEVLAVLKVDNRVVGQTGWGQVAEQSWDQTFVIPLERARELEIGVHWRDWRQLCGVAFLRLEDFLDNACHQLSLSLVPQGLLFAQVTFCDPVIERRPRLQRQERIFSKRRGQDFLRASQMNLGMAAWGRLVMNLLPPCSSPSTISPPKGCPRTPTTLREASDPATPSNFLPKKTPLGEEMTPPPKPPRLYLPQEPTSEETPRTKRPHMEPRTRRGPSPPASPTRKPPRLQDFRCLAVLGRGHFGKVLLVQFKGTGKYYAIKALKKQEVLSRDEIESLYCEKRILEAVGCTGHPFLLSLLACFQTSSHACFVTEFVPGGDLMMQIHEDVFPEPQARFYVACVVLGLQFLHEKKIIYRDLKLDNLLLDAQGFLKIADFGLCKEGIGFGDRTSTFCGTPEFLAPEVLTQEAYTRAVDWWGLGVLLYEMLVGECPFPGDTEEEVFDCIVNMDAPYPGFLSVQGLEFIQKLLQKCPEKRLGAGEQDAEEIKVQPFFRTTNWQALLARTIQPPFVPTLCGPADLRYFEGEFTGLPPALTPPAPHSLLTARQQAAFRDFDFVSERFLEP

## CNC(=O)c1ccc2c(c1)C(=O)c1ccc(Nc3ccc(F)c(NC(=O)C4CC4)c3)cc1CC2 [Compound 2015]
340 wild-type kinases [1]; 0.2 µM 2015, read-out: TRKA residual activity
  remaining activity at 0.2 µM: 109%
340 wild-type kinases [1]; 1 µM 2015, read-out: TRKA residual activity
  remaining activity at 1 µM: 96.5%
340 wild-type kinases [1]; TRKA, 0.2 µM, read-out: residual activity
  remaining activity at 0.2 µM: 109%
340 wild-type kinases [1]; TRKA, 1 µM, read-out: residual activity
  remaining activity at 1 µM: 96.5%
340 wild-type kinases [2]; 0.2 µM 2015, read-out: MEK2 residual activity
  remaining activity at 0.2 µM: 103%
340 wild-type kinases [2]; 1 µM 2015, read-out: MEK2 residual activity
  remaining activity at 1 µM: 69.7%
340 wild-type kinases [2]; MEK2, 0.2 µM, read-out: residual activity
  remaining activity at 0.2 µM: 103%
340 wild-type kinases [2]; MEK2, 1 µM, read-out: residual activity
  remaining activity at 1 µM: 69.7%
340 wild-type kinases [3]; 0.2 µM 2015, read-out: PKCiota residual activity
  remaining activity at 0.2 µM: 104%
340 wild-type kinases [3]; 1 µM 2015, read-out: PKCiota residual activity
  remaining activity at 1 µM: 92%
340 wild-type kinases [3]; PKCiota, 0.2 µM, read-out: residual activity
  remaining activity at 0.2 µM: 104%
340 wild-type kinases [3]; PKCiota, 1 µM, read-out: residual activity
  remaining activity at 1 µM: 92%
340 wild-type kinases [4]; 0.2 µM 2015, read-out: TEC residual activity
  remaining activity at 0.2 µM: 120%
340 wild-type kinases [4]; 1 µM 2015, read-out: TEC residual activity
  remaining activity at 1 µM: 108%
340 wild-type kinases [4]; TEC, 0.2 µM, read-out: residual activity
  remaining activity at 0.2 µM: 120%
340 wild-type kinases [4]; TEC, 1 µM, read-out: residual activity
  remaining activity at 1 µM: 108%
340 wild-type kinases [5]; 0.2 µM 2015, read-out: DDR2 residual activity
  remaining activity at 0.2 µM: 106%
340 wild-type kinases [5]; 1 µM 2015, read-out: DDR2 residual activity
  remaining activity at 1 µM: 98.8%
340 wild-type kinases [5]; DDR2, 0.2 µM, read-out: residual activity
  remaining activity at 0.2 µM: 106%
340 wild-type kinases [5]; DDR2, 1 µM, read-out: residual activity
  remaining activity at 1 µM: 98.8%
340 wild-type kinases [6]; 0.2 µM 2015, read-out: PKN3 residual activity
  remaining activity at 0.2 µM: 84.5%
340 wild-type kinases [6]; 1 µM 2015, read-out: PKN3 residual activity
  remaining activity at 1 µM: 95.6%
340 wild-type kinases [6]; PKN3, 0.2 µM, read-out: residual activity
  remaining activity at 0.2 µM: 84.5%
340 wild-type kinases [6]; PKN3, 1 µM, read-out: residual activity
  remaining activity at 1 µM: 95.6%
340 wild-type kinases [7]; 0.2 µM 2015, read-out: PIM3 residual activity
  remaining activity at 0.2 µM: 95.8%
340 wild-type kinases [7]; 1 µM 2015, read-out: PIM3 residual activity
  remaining activity at 1 µM: 92.3%
340 wild-type kinases [7]; PIM3, 0.2 µM, read-out: residual activity
  remaining activity at 0.2 µM: 95.8%
340 wild-type kinases [7]; PIM3, 1 µM, read-out: residual activity
  remaining activity at 1 µM: 92.2%
340 wild-type kinases [8]; 0.2 µM 2015, read-out: CAMKK1 residual activity
  remaining activity at 0.2 µM: 123%
340 wild-type kinases [8]; 1 µM 2015, read-out: CAMKK1 residual activity
  remaining activity at 1 µM: 106%
340 wild-type kinases [8]; CAMKK1, 0.2 µM, read-out: residual activity
  remaining activity at 0.2 µM: 123%
340 wild-type kinases [8]; CAMKK1, 1 µM, read-out: residual activity
  remaining activity at 1 µM: 106%
